Measurements: PMC12390925, “Metabolomics analysis of SNAT2-deficient cells: Implications for the discovery of selective small-molecule inhibitors of an amino acid transporter” (The Journal of Biological Chemistry, 2025)

Columns and labels:
[1] = molecular target: T1, sodium-coupled neutral amino acid transporter 2 (SNAT2/SLC38A2) (Homo sapiens, UniProt Q96QD8); assay: inhibition of SNAT2-dependent MeAIB uptake in cells (GC-MS); assay type: cell-based
T1 construct: dox-inducible sgRNA-resistant human SLC38A2 cDNA in Slc38a2-KO mouse HY15549 cells
T1 sequence (Q96QD8 1-506): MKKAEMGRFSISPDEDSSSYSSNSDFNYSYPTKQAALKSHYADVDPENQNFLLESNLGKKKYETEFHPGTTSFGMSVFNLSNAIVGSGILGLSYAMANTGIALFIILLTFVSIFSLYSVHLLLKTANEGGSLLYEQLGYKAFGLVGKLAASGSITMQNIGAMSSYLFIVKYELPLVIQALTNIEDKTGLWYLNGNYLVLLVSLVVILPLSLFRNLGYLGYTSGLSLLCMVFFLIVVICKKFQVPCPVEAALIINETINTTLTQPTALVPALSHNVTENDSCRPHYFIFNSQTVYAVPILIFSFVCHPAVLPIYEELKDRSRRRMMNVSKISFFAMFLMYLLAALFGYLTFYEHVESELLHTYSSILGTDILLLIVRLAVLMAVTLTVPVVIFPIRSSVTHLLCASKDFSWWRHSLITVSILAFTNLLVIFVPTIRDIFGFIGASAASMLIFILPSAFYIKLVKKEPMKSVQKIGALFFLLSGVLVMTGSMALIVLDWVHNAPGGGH

[2] = molecular target: T1, sodium-coupled neutral amino acid transporter 2 (SNAT2/SLC38A2); assay: GC-MS cell uptake assay, SNAT2-expressing vs SNAT2-KO cells (KM); assay type: cell-based
[3] = substrate: CNC(C)(C)C(=O)O; assay: GC-MS cell uptake assay, SNAT1-overexpressing vs empty vector cells (KM); assay type: cell-based, Homo sapiens

Molecule: C[C@H](N)C(=O)O [L-alanine]
- IC50 [1]: 1900 µM

Molecule: CNC(C)(C)C(=O)O [MeAIB]
- Km [2]: ~300 µM

B1: SNAT1 (Homo sapiens) (protein)
chain: MMHFKSGLELTELQNMTVPEDDNISNDSNDFTEVENGQINSKFISDRESRRSLTNSHLEKKKCDEYIPGTTSLGMSVFNLSNAIMGSGILGLAFALANTGILLFLVLLTSVTLLSIYSINLLLICSKETGCMVYEKLGEQVFGTTGKFVIFGATSLQNTGAMLSYLFIVKNELPSAIKFLMGKEETFSAWYVDGRVLVVIVTFGIILPLCLLKNLGYLGYTSGFSLSCMVFFLIVVIYKKFQIPCIVPELNSTISANSTNADTCTPKYVTFNSKTVYALPTIAFAFVCHPSVLPIYSELKDRSQKKMQMVSNISFFAMFVMYFLTAIFGYLTFYDNVQSDLLHKYQSKDDILILTVRLAVIVAVILTVPVLFFTVRSSLFELAKKTKFNLCRHTVVTCILLVVINLLVIFIPSMKDIFGVVGVTSANMLIFILPSSLYLKITDQDGDKGTQRIWAALFLGLGVLFSLVSIPLVIYDWACSSSSDEGH
notes: CMV-driven human SLC38A1 cDNA stably expressed in HY15549 iSNAT2 cells
- Km [3]: 2900 µM
